Test results: patent publication EP2072050A1, “Compounds with anti-emetic effect” (Santhera Pharmaceuticals (Schweiz) AG, priority 2007, dated 2009)
Several values for one entry are separate records, joined by “and”; a condition that tells them apart may be missing. Identical values can stand only once.

How the values were obtained:
[1] = system: cisplatin induced emesis in the ferret; assay: cisplatin-induced emesis in the ferret; assay type: in vivo; conditions: for anti-emetic effect (in words): emesis model in the ferret, compound A 30 and 100 mg/kg, ondansetron 16 mg/kg; for Number of Emesis periods / Number of Retches / Number of Vomits: 3 h observation
Source text: The preferred model to assess an anti emetic potential in animals is the cisplatin-induced emesis in the ferret in which the effects of 5HT3A and NK1 antagonists have been thoroughly investigated. The method, which detects antiemetic activity, follows that described by Gardner et al (Brit. J. Pharmacol., 116, 3158-3163, 1995).
Sixty minutes before administration of the test substance, ferrets are placed in individual stainless steel cages (40 x 50 x 34 cm) with a grid floor. Then, the animals are challenged with cisplatin (10 mg/kg i.p.), and immediately observed over a 3-hour period for: • Number of ferrets showing retches and vomits; • Latency to first retching (h:min:s); • Latency to first vomiting (h:min:s); • Retching (number of retches); • Vomiting (number of vomits); • Number of emesis periods; • Mean duration of emesis periods (min:s); • Severe behavioral side effects. Retching is defined as a rhythmic respiratory movement against a closed glottis, while vomiting is defined as a forced expulsion of upper gastrointestinal contents.
The assay as described above was used to evaluate the anti emetic effects of melanocortin-4 receptor antagonists.
Eight ferrets were studied per group. The test substance was evaluated at two doses (30 and 100 mg/kg), administered p.o. 90 minutes before cisplatin, and compared with an appropriate vehicle control group (vehicle administered 90 minutes before cisplatin).
Quantitative data was analyzed by comparing treated groups with vehicle control using unpaired Student's t tests.
Comparison between treated groups and vehicle control was done using Mann-Whitney U tests.

[2] = target: MC-4 receptor (Homo sapiens, UniProt P32245); assay: block of the MC-4 receptor (internal finding, no method given)
Sequence of MC-4 receptor (P32245 whole entry): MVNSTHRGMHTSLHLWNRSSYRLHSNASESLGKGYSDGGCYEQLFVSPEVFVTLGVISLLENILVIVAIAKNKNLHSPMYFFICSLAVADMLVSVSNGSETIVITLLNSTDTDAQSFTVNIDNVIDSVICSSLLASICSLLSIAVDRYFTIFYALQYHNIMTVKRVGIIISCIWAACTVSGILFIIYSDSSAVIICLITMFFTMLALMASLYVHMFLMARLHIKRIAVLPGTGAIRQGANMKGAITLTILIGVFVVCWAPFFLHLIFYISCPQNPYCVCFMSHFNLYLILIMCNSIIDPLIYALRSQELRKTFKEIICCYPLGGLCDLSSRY

[3] = group mean (8 ferrets), Ondansetron 16 mg/kg p.o. 1 h before cisplatin 10 mg/kg i.p.
[4] = individual animal, Ondansetron 16 mg/kg p.o. 1 h before cisplatin 10 mg/kg i.p.
[5] = group mean (8 ferrets), Compound A 30 mg/kg p.o. 1.5 h before cisplatin 10 mg/kg i.p.
[6] = group mean (8 ferrets), Compound A 100 mg/kg p.o. 1.5 h before cisplatin 10 mg/kg i.p.
[7] = individual animal, Compound A 30 mg/kg p.o. 1.5 h before cisplatin 10 mg/kg i.p.
[8] = individual animal, Compound A 100 mg/kg p.o. 1.5 h before cisplatin 10 mg/kg i.p.

Cc1nccn1CC1CCc2c(c3ccccc3n2C)C1=O (stereo not shown) [Ondansetron, ondansetron, reference compound]
anti-emetic effect (in words) [1]: clear anti-emetic effect
Number of Emesis periods [1, 3]: 5.0
Number of Retches [1, 3]: 41.1
Number of Vomits [1, 3]: 1.9
Number of Emesis periods [1, 4]: 0 (4×) and 14 (2×) and 3 and 9
Number of Retches [1, 4]: 0 (4×) and 113 and 26 and 56 and 134
Number of Vomits [1, 4]: 0 (5×) and 2 and 6 and 7
block of the MC-4 receptor [2]: doesn't block
separation between 5HT3 and MC-4 [2]: more than 10000 fold

CC[C@H](COc1cccnc1C1CCN(C(=O)[C@@H](Cc2ccc(Cl)cc2Cl)NC(=O)N2CCCC2)CC1)N1CCCC1 [Compound A]
anti-emetic effect (in words) [1]: pronounced anti-emetic properties
Number of Emesis periods [1, 5]: 6.4
Number of Retches [1, 5]: 64.4
Number of Vomits [1, 5]: 2.4
Number of Emesis periods [1, 6]: 2.3
Number of Retches [1, 6]: 19.9
Number of Vomits [1, 6]: 0.8
Number of Emesis periods [1, 7]: 14 and 4 and 7 and 0 (2×) and 3 and 13 and 10
Number of Retches [1, 7]: 156 and 26 and 90 and 0 (2×) and 41 and 118 and 84
Number of Vomits [1, 7]: 9 and 0 (3×) and 2 (2×) and 1 and 5
Number of Emesis periods [1, 8]: 5 and 0 (4×) and 1 and 8 and 4
Number of Retches [1, 8]: 28 and 0 (4×) and 10 and 83 and 38
Number of Vomits [1, 8]: 2 (3×) and 0 (5×)
